Measurements reported in patent US20250353833A1, “DPP9 BINDING COMPOUNDS” (UNIVERSITEIT ANTWERPEN, priority 2022, published 2025).
Where two headings read alike, the source gives them in different places.

Assays:
DPP8 = DPP8 (Homo sapiens (Human), UniProt Q6V1X1); assay: DPP8 enzyme inhibition, IC50 measurement (Ala-Pro-pNA release); type: biochemical
Description: (§1) IC50 measurements. […] The Magellan software was used to process the data, which was then fitted using a non-linear fit model in GraFit 7. […] As a blank, the assay buffer was used instead of the enzyme. Screening measurements were carried out in duplo and IC50 values were determined in triplo with at least eight different inhibitor concentrations as described by Van Goethem et al.

DPP9 = DPP9 (Homo sapiens (Human), UniProt Q86TI2); assay: DPP9 enzyme inhibition, IC50 measurement (Ala-Pro-pNA release); type: biochemical; settings: for SI DPP9/8 / SI DPP9/DPP8: selectivity index; for SI DPP9/8: DPP8 IC50 over DPP9 IC50
DPP9, sequence (Q86TI2 whole entry): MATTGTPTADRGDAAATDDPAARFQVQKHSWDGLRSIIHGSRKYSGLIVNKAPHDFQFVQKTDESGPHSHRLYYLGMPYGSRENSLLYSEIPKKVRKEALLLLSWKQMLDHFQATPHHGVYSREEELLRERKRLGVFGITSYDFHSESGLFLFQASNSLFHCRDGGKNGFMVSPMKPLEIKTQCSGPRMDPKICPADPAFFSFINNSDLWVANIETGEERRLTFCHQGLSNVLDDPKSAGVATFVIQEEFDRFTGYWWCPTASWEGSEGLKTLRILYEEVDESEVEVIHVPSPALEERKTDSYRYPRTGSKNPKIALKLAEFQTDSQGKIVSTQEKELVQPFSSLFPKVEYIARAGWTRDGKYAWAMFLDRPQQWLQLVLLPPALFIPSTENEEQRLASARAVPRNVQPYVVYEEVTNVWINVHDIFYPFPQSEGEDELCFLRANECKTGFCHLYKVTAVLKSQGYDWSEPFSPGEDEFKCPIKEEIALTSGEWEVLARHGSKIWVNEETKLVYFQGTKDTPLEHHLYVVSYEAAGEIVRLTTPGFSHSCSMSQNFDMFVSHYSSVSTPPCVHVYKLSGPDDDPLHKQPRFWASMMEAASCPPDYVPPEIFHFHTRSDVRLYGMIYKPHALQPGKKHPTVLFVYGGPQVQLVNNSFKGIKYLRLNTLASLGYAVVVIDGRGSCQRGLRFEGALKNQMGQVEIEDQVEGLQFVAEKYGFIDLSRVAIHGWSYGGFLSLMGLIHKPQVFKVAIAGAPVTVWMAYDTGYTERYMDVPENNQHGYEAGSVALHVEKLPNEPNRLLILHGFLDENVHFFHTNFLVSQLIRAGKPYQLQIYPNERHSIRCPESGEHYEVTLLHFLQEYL
Description: DPP4 was purified from human seminal plasma as described previously.^[3]
as §1

[1] = Table 3, mean ± SD (n = 3), read-out: DPP8 IC50 ± SD
[2] = Table 3, mean ± SD (n = 3), read-out: DPP9 IC50 ± SD
[3] = Table 4, standard method, read-out: IC50 DPP8
[4] = Table 4, standard method, read-out: IC50 DPP9

DPP8, sequence (Q6V1X1 whole entry): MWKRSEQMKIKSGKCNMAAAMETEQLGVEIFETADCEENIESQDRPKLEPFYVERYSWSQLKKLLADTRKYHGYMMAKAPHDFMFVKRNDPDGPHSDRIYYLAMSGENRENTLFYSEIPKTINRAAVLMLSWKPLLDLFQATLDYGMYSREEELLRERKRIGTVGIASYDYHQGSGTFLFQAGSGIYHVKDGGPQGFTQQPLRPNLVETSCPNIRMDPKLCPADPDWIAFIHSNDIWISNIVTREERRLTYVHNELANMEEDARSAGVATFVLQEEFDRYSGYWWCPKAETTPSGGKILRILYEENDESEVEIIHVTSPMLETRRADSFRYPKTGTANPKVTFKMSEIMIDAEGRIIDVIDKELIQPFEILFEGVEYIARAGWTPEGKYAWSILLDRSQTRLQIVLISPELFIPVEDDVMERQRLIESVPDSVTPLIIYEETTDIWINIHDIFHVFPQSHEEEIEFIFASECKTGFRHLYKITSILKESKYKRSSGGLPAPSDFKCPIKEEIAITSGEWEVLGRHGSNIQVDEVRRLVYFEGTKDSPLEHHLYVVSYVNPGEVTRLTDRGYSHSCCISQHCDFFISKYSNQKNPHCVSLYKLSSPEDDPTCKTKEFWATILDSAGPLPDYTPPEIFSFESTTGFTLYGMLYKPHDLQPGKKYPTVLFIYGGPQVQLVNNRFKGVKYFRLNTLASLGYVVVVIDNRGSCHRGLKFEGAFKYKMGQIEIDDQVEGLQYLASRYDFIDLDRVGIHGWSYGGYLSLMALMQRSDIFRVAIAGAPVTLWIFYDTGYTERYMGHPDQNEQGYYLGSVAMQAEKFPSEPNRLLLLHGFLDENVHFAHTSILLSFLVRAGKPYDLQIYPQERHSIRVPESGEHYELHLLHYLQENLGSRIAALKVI

| Molecule | IC50 (DPP8; [1]) | IC50 (DPP9; [2]) | SI DPP9/8 (DPP9; Table 3) | IC50 (DPP8; [3]) | SI DPP9/DPP8 (DPP9; Table 4) | IC50 (DPP9; [4]) |
| --- | --- | --- | --- | --- | --- | --- |
| O=C(NCCCC[C@H](NC(=O)OC12CC3CC(CC(NCC(=O)N4Cc5ccccc5C4)(C3)C1)C2)C(=O)O)OCc1ccccc1 [Compound 34, N^6-((benzyloxy)carbonyl)-N^2-(((3-((2-(isoindolin-2-yl)-2-oxoethyl)amino)adamantan-1-yl)oxy)carbonyl)-L-lysine] | 39.4 nM | 1.74 nM | 22.5 |  |  |  |
| Cl.O=C(NC12CC3CC(CC(NCC(=O)N4Cc5ccc(F)cc5C4)(C3)C1)C2)c1ccc(-c2cccnc2)cc1 [Compound 88, N-((1s,3r,5R,7S)-3-((2-(5-fluoroisoindolin-2-yl)-2-oxoethyl)amino)adamantan-1-yl)-4-(pyridin-3-yl)benzamide hydrochloride] |  |  |  | 51 ± 25 nM | 24 | 2 nM |
| Methyl (((3-((2-(5-fluoroisoindolin-2-yl)-2-oxoethyl)amino)adamantan-1-yl)oxy)carbonyl)-L-isoleucinate [Compound 57] | 2180 ± 345 nM | 107 nM | 20.4 |  |  |  |
| COC(=O)[C@H](CCSC)NC(=O)OC12CC3CC(CC(NCC(=O)N4Cc5ccc(F)cc5C4)(C3)C1)C2 [Compound 61, Methyl (((-3-((2-(5-fluoroisoindolin-2-yl)-2-oxoethyl)amino)adamantan-1-yl)oxy)carbonyl)-L-methioninate] | 705 ± 76 nM | 46.1 nM | 15.3 |  |  |  |
| O=C1CCC(N2C(=O)c3cccc(NCCOCCNC(=O)NC45CC6CC(CC(NCC(=O)N7Cc8ccc(F)cc8C7)(C6)C4)C5)c3C2=O)C(=O)N1 (stereo not drawn) [Compound 77, 1-(2-(2-((2-(2,6-Dioxopiperidin-3-yl)-1,3-dioxoisoindolin-4-yl)amino)ethoxy)ethyl)-3-(3-((2-(5-fluoroisoindolin-2-yl)-2-oxoethyl)amino)adamantan-1-yl)urea] | 21 nM | 2.4 nM | 9 |  |  |  |
| Cl.O=C(NC12CC3CC(CC(NCC(=O)N4Cc5ccc(F)cc5C4)(C3)C1)C2)c1ccc(F)cc1 [Compound 95, 4-fluoro-N-((1s,3r,5R,7S)-3-((2-(5-fluoroisoindolin-2-yl)-2-oxoethyl)amino)adamantan-1-yl)benzamide hydrochloride] |  |  |  | 295 ± 15 nM | 7 | 42 nM |
| O=C1CCC(N2C(=O)c3cccc(NCCOCCOCCOCCNC(=O)NC45CC6CC(CC(NCC(=O)N7Cc8ccc(F)cc8C7)(C6)C4)C5)c3C2=O)C(=O)N1 (stereo not drawn) [Compound 78, 1-(2-(2-(2-(2-((2-(2,6-Dioxopiperidin-3-yl)-1,3-dioxoisoindolin-4-yl)amino)ethoxy)ethoxy)ethoxy)ethyl)-3-(3-((2-(5-fluoroisoindolin-2-yl)-2-oxoethyl)amino)adamantan-1-yl)urea] | 79 nM | 12 nM | 7 |  |  |  |
| O=C(O)CNC(=O)OC12CC3CC(CC(NCC(=O)N4Cc5ccc(F)cc5C4)(C3)C1)C2 [Compound 53] | 1740 ± 59.1 nM | 39.6 nM | 43.9 |  |  |  |
| O=C(NCCCc1ccccc1)OC12CC3CC(CC(NCC(=O)N4Cc5ccccc5C4)(C3)C1)C2 [Compound 38, 3-((2-(isoindolin-2-yl)-2-oxoethyl)amino)adamantan-1-yl (3-phenylpropyl)carbamate] | 1010 ± 132 nM | 100 nM | 10.1 |  |  |  |
| O=C(CCCCC1SCC2NC(=O)NC21)NCCOCCOCCOCCNC(=O)NC12CC3CC(CC(NCC(=O)N4Cc5ccc(F)cc5C4)(C3)C1)C2 (stereo not drawn) [Compound 75, N-(1-((3-((2-(5-fluoroisoindolin-2-yl)-2-oxoethyl)amino)adamantan-1-yl)amino)-1-oxo-5,8,11-trioxa-2-azatridecan-13-yl)-5-(2-oxohexahydro-1H-thieno[3,4-d]imidazol-4-yl)pentanamide] | 495 ± 72 nM | 43 nM | 12 |  |  |  |
| Cl.O=C(NC12CC3CC(CC(NCC(=O)N4Cc5ccc(F)cc5C4)(C3)C1)C2)c1ccc(-c2ccncc2)cc1 [Compound 91, N-((1s,3r,5R,7S)-3-((2-(5-fluoroisoindolin-2-yl)-2-oxoethyl)amino)adamantan-1-yl)-4-(pyridin-4-yl)benzamide hydrochloride] |  |  |  | 102 ± 28 nM | 12 | 8 nM |
| N-(3-((2-(isoindolin-2-yl)-2-oxoethyl)amino)adamantan-1-yl)adamantane-1-carboxamide [Compound 43] | 5700 ± 1100 nM | 186 ± 53.6 nM | 30.6 |  |  |  |
| O=C(N[C@@H](Cc1c[nH]c2ccccc12)C(=O)O)OC12CC3CC(CC(NCC(=O)N4Cc5ccc(F)cc5C4)(C3)C1)C2 | 164 nM | 6.55 nM | 25.0 |  |  |  |
| CC(C)(C)CC(=O)NC12CC3CC(CC(NCC(=O)N4Cc5cc(F)c(F)cc5C4)(C3)C1)C2 [Compound 86, N-((1s,3r,5R,7S)-3-((2-(5,6-difluoroisoindolin-2-yl)-2-oxoethyl)amino)adamantan-1-yl)-3,3-dimethylbutanamide] |  |  |  | 1300 ± 127 nM | 22 | 58 nM |
| CC(C)(C)OC(=O)NC12CC3CC(CC(NCC(=O)N4Cc5ccccc5C4)(C3)C1)C2 [Compound 28, tert-butyl(3-((2-(isoindolin-2-yl)-2oxoethyl)amino)adamantan-1-yl)carbamate] | 1140 ± 150 nM | 36.7 nM | 31.7 |  |  |  |
| CC(C)(C)NC(=O)NC12CC3CC(CC(NCC(=O)N4Cc5ccc(F)cc5C4)(C3)C1)C2 [Compound 48, 1-(tert-butyl)-3-(3-((2-(5-fluoroisoindolin-2-yl)-2-oxoethyl)amino)adamantan-1-yl)urea] | 369 ± 30 nM | 4 ± 1 nM | 85 |  |  |  |
| N#Cc1ccc(CNC23CC4CC(CC(NCC(=O)N5Cc6ccccc6C5)(C4)C2)C3)cc1 [Compound 26, 4-(((-3-((2-(isoindolin-2-yl)-2-oxoethyl)amino)adamantan-1-yl)amino)methyl)benzonitrile] | 672 ± 412 nM | 50.6 ± 28.7 nM | 13.3 |  |  |  |
| NC12CC3CC(C1)CC(NCC(=O)N1Cc4ccc(F)cc4C1)(C3)C2 [Compound 47, 2-((3-aminoadamantan-1-yl)amino)-1-(5-fluoroisoindolin-2-yl)ethan-1-one bis(2,2,2-trifluoroacetate)] | 2620 ± 394 nM | 259 ± 35.8 nM | 10.1 |  |  |  |
| O=C(NCc1ccncc1)OC12CC3CC(CC(NCC(=O)N4Cc5ccccc5C4)(C3)C1)C2 [Compound 37, 3-((2-(isoindolin-2-yl)-2-oxoethyl)amino)adamantan-1-yl (pyridin-4-ylmethyl)carbamate] | 1110 ± 335 nM | 90.8 ± 13.5 nM | 12.2 |  |  |  |
| O=C(NC(c1ccc(F)cc1)c1ccc(F)cc1)OC12CC3CC(CC(NCC(=O)N4Cc5ccccc5C4)(C3)C1)C2 [Compound 32, 3-((2-(isoindolin-2-yl)-2-oxoethyl)amino)adamantan-1-yl (bis(4-fluorophenyl)methyl)carbamate] | 667 ± 31.1 nM | 47.7 nM | 14.0 |  |  |  |
| Cl.O=C(NC12CC3CC(CC(NCC(=O)N4Cc5ccc(F)cc5C4)(C3)C1)C2)c1cccnc1 [Compound 98, N-((1s,3r,5R,7S)-3-((2-(5-fluoroisoindolin-2-yl)-2-oxoethyl)amino)adamantan-1-yl)nicotinamide hydrochloride] |  |  |  | 270 ± 33 nM | 3 | 88 ± 23 nM |
| O=C(NC12CC3CC(CC(C3)C1)C2)NC12CC3CC(CC(NCC(=O)N4Cc5ccccc5C4)(C3)C1)C2 [Compound 41, 1-(adamantan-1-yl)-3-(3-((2-(isoindolin-2-yl)-2-oxoethyl)amino)adamantan-1-yl)urea] | 592 ± 87.7 nM | 32.8 nM | 18.0 |  |  |  |
| O=C(O)[C@@H]1CCCN1C(=O)OC12CC3CC(CC(NCC(=O)N4Cc5ccc(F)cc5C4)(C3)C1)C2 | 920 ± 121 nM | 8.03 nM | 114.6 |  |  |  |
| O=C(NCCCCO)OC12CC3CC(CC(NCC(=O)N4Cc5ccccc5C4)(C3)C1)C2 [Compound 29, 3-((2-(isoindolin-2-yl)-2-oxoethyl)amino)adamantan-1-yl(4-hydroxybutyl)carbamate] | 2600 ± 577 nM | 243 ± 107 nM | 10.7 |  |  |  |
| Lithium (((3-((2-(5-fluoroisoindolin-2-yl)-2-oxoethyl)amino)adamantan-1-yl)oxy)carbonyl)glycine [Compound 54] | 243 ± 46.4 nM | 8.88 nM | 27.4 |  |  |  |
| N#Cc1ccc(CCC(=O)NC23CC4CC(CC(NCC(=O)N5Cc6ccccc6C5)(C4)C2)C3)cc1 [Compound 44, 3-(4-cyanophenyl)-N-(3-((2-(isoindolin-2-yl)-2-oxoethyl)amino)adamantan-1-yl)propanamide] | 638 ± 46.4 nM | 32 nM | 19.9 |  |  |  |
| COC(=O)[C@H](C)NC(=O)OC12CC3CC(CC(NCC(=O)N4Cc5ccc(F)cc5C4)(C3)C1)C2 [Compound 62, Methyl (((3-((2-(5-fluoroisoindolin-2-yl)-2-oxoethyl)amino)adamantan-1-yl)oxy)carbonyl)-L-alaninate] | 1290 ± 186 nM | 93.8 ± 17.3 nM | 13.8 |  |  |  |
| lithium (((3-((2-(5-fluoroisoindolin-2-yl)-2-oxoethyl)amino)adamantan-1-yl)oxy)carbonyl)-L-tryptophanate [Compound 56] | 2080 ± 184 nM | 94.6 nM | 22.0 |  |  |  |
| 3-((2-(isoindolin-2-yl)-2-oxoethyl)amino)adamantan-1-yl tert-pentylcarbamate hydrochloride [Compound 31] | 4710 ± 1590 nM | 378 ± 173 nM | 12.5 |  |  |  |
